The experiment relates to Escherichia coli. Briefly: In vivo antibacterial activity against Escherichia coli GR501 harboring lig251 temperature-sensitive mutant gene transformed with plasmid encoding Mycobacterium tuberculosis NAD+ DNA ligase assessed as growth inhibition after 20 hrs by microdilution assay. The format is functional. To be noted: GR501, 20 h.

Converted amounts (≈) assume the structure as drawn.

For `O=C1C2(CCCC13CC3c1ccc(F)cc1)CC2c1ccc(F)cc1` (configuration not stated), the minimum inhibitory concentration (MIC) worked out at 44.3 µM (≈ 15 µg/mL).

On to `O=C1C2(CCCC13CC3c1ccc(Br)cc1)CC2c1ccc(Br)cc1` (configuration not stated), for which the MIC was found to be 52.1 µM (≈ 24 µg/mL).
